Columns and labels:
[1] = target: Cyclin-dependent kinase 2 (Homo sapiens, UniProt P24941); assay: In vitro inhibition of Cyclin-dependent kinase 2
MDA-MB-435 = assay: Inhibitory concentration against human breast carcinoma cell line proliferation; type: functional, cell-based
RKO = assay: Inhibitory concentration against human colon cancer (RKO) cell line proliferation; type: functional, cell-based
[2] = Inhibition of blocked progression of G0 synchronized cell into S phase using G1-S cell cycle progression assay; type: functional

| IC50 [1] | IC50 (MDA-MB-435) | IC50 [2] | SMILES | IC50 (RKO) |
| --- | --- | --- | --- | --- |
| 23 nM | 1080 nM | – | NCCS(=O)(=O)c1cc(-c2ccc[nH]2)c2c3c(ccc(F)c13)NC2=O | 430 nM |
| 15 nM | 3200 nM | – | O=C1Nc2ccc(F)c3c(S(=O)(=O)CCO)cc(-c4ccc[nH]4)c1c23 | 1200 nM |
| 77 nM | – | – | CCOc1cc(-c2ccc[nH]2)c2c3c(ccc(F)c13)NC2=O | – |
| 3 nM | 310 nM | 810 nM | NCCSc1cc(-c2ccc[nH]2)c2c3c(ccc(F)c13)NC2=O | 100 nM |
| 12 nM | 380 nM | 910 nM | NCCOc1cc(-c2ccc[nH]2)c2c3c(ccc(F)c13)NC2=O | 110 nM |
| 204 nM | 2280 nM | > 30000 nM | O=C1Nc2ccc(F)c3ccc(-c4ccc[nH]4)c1c23 | 5950 nM |
| 127 nM | – | – | CC(=O)NCCNc1cc(-c2ccc[nH]2)c2c3c(ccc(F)c13)NC2=O | – |
| 7 nM | – | – | NCCCc1cc(-c2ccc[nH]2)c2c3c(ccc(F)c13)NC2=O | – |
| 5 nM | – | – | N#CCCc1cc(-c2ccc[nH]2)c2c3c(ccc(F)c13)NC2=O | – |
| 18 nM | 210 nM | – | O=C1Nc2ccc(F)c3c(SC[C@@H]4CCCN4)cc(-c4ccc[nH]4)c1c23 | 60 nM |
| 28 nM | 1210 nM | 1870 nM | NCC[S+]([O-])c1cc(-c2ccc[nH]2)c2c3c(ccc(F)c13)NC2=O (centres undefined) | 420 nM |
| 18 nM | – | – | O=C1Nc2ccc(F)c3c(OCCCO)cc(-c4ccc[nH]4)c1c23 | – |
| 5 nM | 120 nM | – | O=C1Nc2ccc(F)c3c(S[C@H]4CCNC4)cc(-c4ccc[nH]4)c1c23 | 70 nM |
| 62 nM | 580 nM | 10900 nM | O=C1Nc2ccc(F)c3c(OCCO)cc(-c4ccc[nH]4)c1c23 | 500 nM |
| 48 nM | 70 nM | 2040 nM | NCCCNc1cc(-c2ccc[nH]2)c2c3c(ccc(F)c13)NC2=O | 120 nM |
| > 1000 nM | – | – | CC(=O)OCCCOc1cc(-c2ccc[nH]2)c2c3c(ccc(F)c13)NC2=O | – |
| 72 nM | – | – | CCc1cc(-c2ccc[nH]2)c2c3c(ccc(F)c13)NC2=O | – |
| 376 nM | – | – | Cc1cc(-c2ccc[nH]2)c2c3c(ccc(F)c13)NC2=O | – |
| – | – | 1490 nM | NCCNc1cc(-c2ccc[nH]2)c2c3c(ccc(F)c13)NC2=O | – |
| 65 nM | 160 nM | 1670 nM | CC(C)(N)CNc1cc(-c2ccc[nH]2)c2c3c(ccc(F)c13)NC2=O | 110 nM |
| 14 nM | 1730 nM | 2740 nM | O=C1Nc2ccc(F)c3c(SCCO)cc(-c4ccc[nH]4)c1c23 | 1480 nM |
| 124 nM | – | – | CC(C)Cc1cc(-c2ccc[nH]2)c2c3c(ccc(F)c13)NC2=O | – |
| 54 nM | 620 nM | 2390 nM | O=C1Nc2ccc(F)c3c(NCCO)cc(-c4ccc[nH]4)c1c23 | 740 nM |
| 18 nM | 890 nM | 7100 nM | COc1cc(-c2ccc[nH]2)c2c3c(ccc(F)c13)NC2=O | 750 nM |
| 5500 nM | – | – | CC(C)(C)OC(=O)NCCNc1cc(-c2ccc[nH]2)c2c3c(ccc(F)c13)NC2=O | – |
| 294 nM | – | – | CCN(CC)CCNc1cc(-c2ccc[nH]2)c2c3c(ccc(F)c13)NC2=O | – |

From ChEMBL document CHEMBL1136123, “3,5,6-Trisubstituted naphthostyrils as CDK2 inhibitors” (Bioorg Med Chem Lett, 2003)
